Each compound was assayed against T1, Human BCL6 protein (N-terminal HiBiT tagged BCL6 in HT1080 cells) (Homo sapiens, UniProt P41182+Q96SW2) (assay: HiBiT based BCL6 degradation assay). Conditions: HT1080 cells expressing N-terminal HiBiT tagged BCL6; 5 hours incubation; BCL6 degradation normalized with DMSO control.
T1 construct: Human BCL6 protein coding open reading frame; expressed in transfected cells; host or cells: HT1080 (ATCC CCL-121), stably transduced with lentivirus pLV-UBC-N-HiBiT-BCL6-PGK-puro
Assay type: cell-based
Excerpt: Human BCL6 protein coding open reading frame fused with N-terminal HiBiT coding sequence was synthesized from Integrated DNA Technologies (IDT). Next, the N-HiBiT-BCL6 sequence was cloned into pLV-UBC-PGK-Puro, a lentivirus plasmid purchased from Vectorbuilder, to generate pLV-UBC-N-HiBiT-BCL6-PGK-puro. Lentiviral particles were generated from Lenti-X™ 293T cells (Clontech) by co-transfection of pLV-UBC-N-HiBiT-BCL6-PGK-puro plasmids and lentiviral packaging plasmid mix (Cellecta). HT1080 [HT1080] (ATCC CCL-121) cells were infected with the lentivirus, and HT1080 cells stably integrated with the lentiviral vectors were established by incubation with 1 μg/mL puromycin (Thermofisher).
HT1080 cells expressing N-terminal HiBiT tagged BCL6 were dispensed into a 384-well plate pre-spotted with compounds at varying concentrations. Five thousand cells were seeded into each well in 40 μL of RPMI 1640 media plus 10% Fetal Bovine Serum (10082-147, Thermofisher). After 5 hours of incubation at 37° C. with 5% CO2, 30 μL of the NANO-GLO® HiBiT Lytic Detection System working solution (Promega) was added to each well and incubated at room temperature for 15 min. After incubation, luminescence was read on a PHERAstar FSX Plate Reader (BMG). BCL6 degradation at each indicated concentration was normalized with DMSO control. The BCL6 degradation curves were plotted using a four-parameter logistic model.
In the case of `CNC(=O)COc1cc2cc(Nc3nc(N4CCCC5(CCCN(c6cccc7c(C8CCC(=O)NC8=O)nn(C)c67)C5)C4)ncc3Cl)ccc2n(C)c1=O` (stereo not drawn) [Compound 330, 2-((6-((5-chloro-2-(8-(3-(2,6-dioxopiperidin-3-yl)-1-methyl-1H-indazol-7-yl)-2,8-diazaspiro[5.5]undecan-2-yl)pyrimidin-4-yl)amino)-1-methyl-2-oxo-1,2-dihydroquinolin-3-yl)oxy)-N-methylacetamide], the “Ymin (5 hr)” value is reported as “++ (50% < Ymin ≤ 70%)”.
For `CNC(=O)COc1cc2cc(Nc3nc(N4CCC(OC5CCN(c6cccc7c(C8CCC(=O)NC8=O)nn(C)c67)CC5)CC4)ncc3Cl)ccc2n(C)c1=O` (stereo not drawn) [Compound 316, 2-((6-((5-chloro-2-(4-((1-(3-(2,6-dioxopiperidin-3-yl)-1-methyl-1H-indazol-7-yl)piperidin-4-yl)oxy)piperidin-1-yl)pyrimidin-4-yl)amino)-1-methyl-2-oxo-1,2-dihydroquinolin-3-yl)oxy)-N-methylacetamide], the “Ymin (5 hr)” value was “++++ (Ymin ≤ 25%)”.
`CNC(=O)COc1cc2cc(Nc3nc(N4CCC(CCNc5ccc(C6CCC(=O)NC6=O)cc5)CC4)ncc3Cl)ccc2n(C)c1=O` (stereo not drawn) [Compound 284, 2-((6-((5-chloro-2-(4-(2-((4-(2,6-dioxopiperidin-3-yl)phenyl)amino)ethyl)piperidin-1-yl)pyrimidin-4-yl)amino)-1-methyl-2-oxo-1,2-dihydroquinolin-3-yl)oxy)-N-methylacetamide] was tested, and the “Ymin (5 hr)” value was “++ (50% < Ymin ≤ 70%)”.
In the case of `CNC(=O)COc1cc2cc(Nc3nc(NC[C@H]4CC[C@H](Nc5ccc(C6CCC(=O)NC6=O)cc5)CC4)ncc3Cl)ccc2n(C)c1=O` (stereo partly drawn) [Compound 277a, 2-((6-((5-chloro-2-((((1r,4r)-4-((4-(2,6-dioxopiperidin-3-yl)phenyl)amino)cyclohexyl)methyl)amino)pyrimidin-4-yl)amino)-1-methyl-2-oxo-1,2-dihydroquinolin-3-yl)oxy)-N-methylacetamide], the “Ymin (5 hr)” value is reported as “+ (Ymin > 70%)”.
In the case of `CNC(=O)COc1cc2cc(Nc3nc(N4CCC[C@@H](CNc5cccc(C6CCC(=O)NC6=O)c5)C4)ncc3Cl)ccc2n(C)c1=O` (stereo partly drawn) [Compound 275b, 2-((6-((5-chloro-2-((3S)-3-(((3-(2,6-dioxopiperidin-3-yl)phenyl)amino)methyl)piperidin-1-yl)pyrimidin-4-yl)amino)-1-methyl-2-oxo-1,2-dihydroquinolin-3-yl)oxy)-N-methylacetamide], the “Ymin (5 hr)” value is reported as “++ (50% < Ymin ≤ 70%)”.
In the case of `CNC(=O)COc1cc2cc(Nc3nc(N4CCN(C(C)(C)C5CCN(c6cccc7c(C8CCC(=O)NC8=O)nn(C)c67)CC5)CC4)ncc3Cl)ccc2n(C)c1=O` (stereo not drawn) [Compound 337, 2-((6-((5-chloro-2-(4-(2-(1-(3-(2,6-dioxopiperidin-3-yl)-1-methyl-1H-indazol-7-yl)piperidin-4-yl)propan-2-yl)piperazin-1-yl)pyrimidin-4-yl)amino)-1-methyl-2-oxo-1,2-dihydroquinolin-3-yl)oxy)-N-methylacetamide], the “Ymin (5 hr)” value is reported as “++++ (Ymin ≤ 25%)”.
In the case of `CNC(=O)COc1cc2cc(Nc3nc(N4CCN(CC5CCC6(CC5)CN(c5cccc7c(C8CCC(=O)NC8=O)nn(C)c57)C6)CC4)ncc3Cl)ccc2n(C(C)C)c1=O` (stereo not drawn) [Compound 311, 2-((6-((5-chloro-2-(4-((2-(3-(2,6-dioxopiperidin-3-yl)-1-methyl-1H-indazol-7-yl)-2-azaspiro[3.5]nonan-7-yl)methyl)piperazin-1-yl)pyrimidin-4-yl)amino)-1-isopropyl-2-oxo-1,2-dihydroquinolin-3-yl)oxy)-N-methylacetamide], the “Ymin (5 hr)” value is reported as “++ (50% < Ymin ≤ 70%)”.
In the case of `CNC(=O)COc1cc2cc(Nc3nc(N4CCN(CC5CCC6(CC5)CN(c5cccc7c(C8CCC(=O)NC8=O)nn(C)c57)C6)CC4)ncc3Cl)ccc2n(C)c1=O` (stereo not drawn) [Compound 104, 2-((6-((5-chloro-2-(4-((2-(3-(2,6-dioxopiperidin-3-yl)-1-methyl-1H-indazol-7-yl)-2-azaspiro[3.5]nonan-7-yl)methyl)piperazin-1-yl)pyrimidin-4-yl)amino)-1-methyl-2-oxo-1,2-dihydroquinolin-3-yl)oxy)-N-methylacetamide], the “Ymin (5 hr)” value is reported as “+++ (25% < Ymin ≤ 50%)”.
For `CNC(=O)COc1cc2cc(Nc3nc(N4CCC(CCCOc5ccc6c(C7CCC(=O)NC7=O)nn(C)c6c5)CC4)ncc3Cl)ccc2n(C)c1=O` (stereo not drawn) [Compound 296, 2-((6-((5-chloro-2-(4-(3-((3-(2,6-dioxopiperidin-3-yl)-1-methyl-1H-indazol-6-yl)oxy)propyl)piperidin-1-yl)pyrimidin-4-yl)amino)-1-methyl-2-oxo-1,2-dihydroquinolin-3-yl)oxy)-N-methylacetamide], the “Ymin (5 hr)” value was “+++ (25% < Ymin ≤ 50%)”.
For `CNC(=O)COc1cc2cc(Nc3nc(N4CCCC5(CCCN(c6ccc7c(C8CCC(=O)NC8=O)nn(C)c7c6)C5)C4)ncc3Cl)ccc2n(C)c1=O` (stereo not drawn) [Compound 335, 2-((6-((5-chloro-2-(8-(3-(2,6-dioxopiperidin-3-yl)-1-methyl-1H-indazol-6-yl)-2,8-diazaspiro[5.5]undecan-2-yl)pyrimidin-4-yl)amino)-1-methyl-2-oxo-1,2-dihydroquinolin-3-yl)oxy)-N-methylacetamide], the “Ymin (5 hr)” value was “++ (50% < Ymin ≤ 70%)”.
`CNC(=O)COc1cc2cc(Nc3nc(N4CCO[C@H](COc5ccc6c(C7CCC(=O)NC7=O)nn(C)c6c5)C4)ncc3Cl)ccc2n(C)c1=O` (stereo partly drawn) [Compound 317a, 2-((6-((5-chloro-2-((2S)-2-(((3-(2,6-dioxopiperidin-3-yl)-1-methyl-1H-indazol-6-yl)oxy)methyl)morpholino)pyrimidin-4-yl)amino)-1-methyl-2-oxo-1,2-dihydroquinolin-3-yl)oxy)-N-methylacetamide] was tested, and the “Ymin (5 hr)” value was “+++ (25% < Ymin ≤ 50%)”.
In the case of `CNC(=O)COc1cc2cc(Nc3nc(N4CCC[C@H](CCNc5cccc6c(C7CCC(=O)NC7=O)nn(C)c56)C4)ncc3Cl)ccc2n(C)c1=O` (single isomer, unassigned) [Compound 294b], the “Ymin (5 hr)” value is reported as “++ (50% < Ymin ≤ 70%)”.
For `CNC(=O)COc1cc2cc(Nc3nc(N4CCC[C@@H](CNc5cccc6c(C7CCC(=O)NC7=O)nn(C)c56)C4)ncc3Cl)ccc2n(C)c1=O` (stereo partly drawn) [Compound 266a, 2-((6-((5-chloro-2-((3S)-3-(((3-(2,6-dioxopiperidin-3-yl)-1-methyl-1H-indazol-7-yl)amino)methyl)piperidin-1-yl)pyrimidin-4-yl)amino)-1-methyl-2-oxo-1,2-dihydroquinolin-3-yl)oxy)-N-methylacetamide], the “Ymin (5 hr)” value was “++ (50% < Ymin ≤ 70%)”.
In the case of `CNC(=O)COc1cc2cc(Nc3nc(NC[C@H]4CC[C@@H](Nc5ccc(C6CCC(=O)NC6=O)cc5)CC4)ncc3Cl)ccc2n(C)c1=O` (stereo partly drawn) [Compound 277b, 2-((6-((5-chloro-2-((((1s,4s)-4-((4-(2,6-dioxopiperidin-3-yl)phenyl)amino)cyclohexyl)methyl)amino)pyrimidin-4-yl)amino)-1-methyl-2-oxo-1,2-dihydroquinolin-3-yl)oxy)-N-methylacetamide], the “Ymin (5 hr)” value is reported as “++ (50% < Ymin ≤ 70%)”.
With `CNC(=O)COc1cc2cc(Nc3nc(N4CCC[C@@H](CNc5ccc(C6CCC(=O)NC6=O)cc5)C4)ncc3Cl)ccc2n(C)c1=O` (stereo partly drawn) [Compound 106b, 2-((6-((5-chloro-2-((3S)-3-(((4-(2,6-dioxopiperidin-3-yl)phenyl)amino)methyl)piperidin-1-yl)pyrimidin-4-yl)amino)-1-methyl-2-oxo-1,2-dihydroquinolin-3-yl)oxy)-N-methylacetamide] the “Ymin (5 hr)” value was “++ (50% < Ymin ≤ 70%)”.
